Data reported in the NIST ThermoML archive (doi:10.1021/je900460m).
± gives the expanded uncertainty stated by the source.

CCCCCCn1cc[n+](C)c1.N#C[S-] [1-hexyl-3-methylimidazolium thiocyanate]
mass density (298.15 K, 101.33 kPa, Liquid, Pycnometric method): 1056.92 ± 11 kg/m3
viscosity (298.15 K, Liquid, Capillary tube (Ostwald / Ubbelohde) method): 93.62 ± 3.1 mPa·s
Glass transition temperature (Glass, visual observation): -83.2 ± 3 °C
